Consider twelve compounds from ChEMBL document CHEMBL1201862, “PubChem BioAssay data set” (2004).

Each structure is given as a SMILES string.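 Compound exposure: 48 hours, 5 concentrations, 96-well plates. The concentration for 50% growth inhibition is given as GI50.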 The source made the active and inactive calls. Rule as the data show it: active = GI50 up to about 1.1 µM and inactive = higher.

Among the test systems are NCI/ADR-RES; ACHN; U-251; NCI-H226; HOP-62; MDA-MB-231; SNB-19; LOX IMVI; Malme-3M; COLO 205; MOLT-4; SR; A549; SF-539; MCF7; SK-OV-3; SNB-75; A498.
Common to all, as to assay: NCI-60 cell line screen, 48 h

Take `COc1cc2c(cc1OC)C(=O)/C(=C/c1ccc(N(C)C)cc1)CC2`: the GI50 in the assay with NCI/ADR-RES, in the assay with ACHN, in the assay on U-251, in the assay with NCI-H226, with HOP-62 and in the assay with MDA-MB-231 was > 10 µM (inactive) throughout. Moreover, the GI50 in the assay with SNB-19, in the assay with LOX IMVI, with Malme-3M, in the assay on COLO 205, with MOLT-4 and in the assay on SR was > 10 µM (inactive) each time. Besides, the GI50 with A549, in the assay with SF-539, with MCF7 and with SK-OV-3 was > 10 µM (inactive) throughout.

With `COc1ccc2c(c1)C(=O)CC(C(N)=O)C2` (stereo unspecified), the GI50 in the assay on NCI/ADR-RES, in the assay on ACHN, with U-251, in the assay on NCI-H226, with HOP-62 and with MDA-MB-231 was > 100 µM (inactive) throughout. Also, the GI50 in the assay on SNB-19, in the assay on LOX IMVI, in the assay on Malme-3M, with COLO 205, in the assay on MOLT-4 and with SR was > 100 µM (inactive) throughout. For the same compound, the GI50 was > 100 µM (inactive) with A549, 53.1 µM (inactive) with SNB-75, > 100 µM (inactive) in the assay with MCF7 and > 100 µM (inactive) with SK-OV-3.

On to `O=C(O)c1cc(Sc2ccc([N+](=O)[O-])c(C(=O)O)c2)ccc1[N+](=O)[O-]`, for which the GI50 in the assay with NCI/ADR-RES, in the assay on ACHN, with U-251, in the assay on NCI-H226, in the assay with HOP-62 and in the assay with MDA-MB-231 was > 100 µM (inactive) throughout. The GI50 in the assay with SNB-19 is > 100 µM (inactive); in the assay on LOX IMVI it was > 100 µM (inactive); in the assay on Malme-3M it was 0.413 µM (active); in the assay with COLO 205 it was > 100 µM (inactive); with MOLT-4 it was > 100 µM (inactive); in the assay with A549, > 100 µM (inactive). Moreover, the GI50 in the assay with SF-539, in the assay on A498, in the assay on MCF7 and in the assay on SK-OV-3 was > 100 µM (inactive) each time.

Take `CCN1CCC(O)(c2ccc(Oc3ccc(C)cc3)cc2)C(C(=O)c2ccc(Oc3ccc(C)cc3)cc2)C1` (stereo unspecified): the GI50 is 13.8 µM (inactive) in the assay on NCI/ADR-RES; 13.2 µM (inactive) with ACHN; 11.6 µM (inactive) in the assay on U-251; 14.1 µM (inactive) with NCI-H226; 15.2 µM (inactive) in the assay on HOP-62; 6.18 µM (inactive) in the assay with MDA-MB-231. Besides, the GI50 in the assay with SNB-19 is 14.2 µM (inactive); in the assay with LOX IMVI it was 3.69 µM (inactive); in the assay with Malme-3M, 14.6 µM (inactive); in the assay on COLO 205 it was 12.1 µM (inactive); in the assay on MOLT-4, 10.3 µM (inactive); in the assay with A549 it was 12.8 µM (inactive). In addition, the GI50 with SNB-75 was 7.16 µM (inactive); with A498, 0.426 µM (active); with MCF7 it was 2.42 µM (inactive); with SK-OV-3, 16.1 µM (inactive).

Turning to `O=CN1CCN(c2ccc3ccc(O)nc3n2)CC1`, the GI50 in the assay with NCI/ADR-RES, in the assay with ACHN, in the assay with U-251, in the assay with NCI-H226, in the assay with HOP-62 and in the assay on MDA-MB-231 was > 100 µM (inactive) throughout. In addition, the GI50 in the assay with SNB-19, in the assay on LOX IMVI, with Malme-3M, with COLO 205, in the assay on MOLT-4 and in the assay with SR was > 100 µM (inactive) in each case. Besides, the GI50 with A549, in the assay with SNB-75, with SF-539, with MCF7 and with SK-OV-3 was > 100 µM (inactive) in each case.

With `COC1CC(OC2CCC3(C)C(=CCC4C3C(OC(C)=O)C(OC(=O)CC(C)C)C3(C)C(C(C)=O)CCC43O)C2)OC(C)C1OC1CC(OC)C(OC2CC(OC)C(OC3OC(C)C(OC4OC(CO)C(O)C(O)C4O)C(OC)C3O)C(C)O2)C(C)O1` (stereo unspecified), the GI50 was > 75 µM (inactive) in the assay with NCI/ADR-RES; > 75 µM (inactive) with ACHN; > 75 µM (inactive) with U-251; > 75 µM (inactive) in the assay with NCI-H226; 11.6 µM (inactive) with HOP-62; > 75 µM (inactive) in the assay on MDA-MB-231. For the same compound, the GI50 in the assay with SNB-19, in the assay with LOX IMVI, in the assay with COLO 205, in the assay with MOLT-4, in the assay on A549 and with SNB-75 was > 75 µM (inactive) each time. In addition, the GI50 in the assay on SF-539, with A498, in the assay with MCF7 and with SK-OV-3 was > 75 µM (inactive) in each case.

`O=C(Nc1ccc(F)cc1)c1cc2c(cc1Cl)Sc1nccn1S2(=O)=O`: the GI50 with NCI/ADR-RES was > 100 µM (inactive); in the assay with ACHN it was 63.1 µM (inactive); with U-251, 16.3 µM (inactive); in the assay with NCI-H226, > 100 µM (inactive); in the assay with HOP-62, 34.8 µM (inactive); in the assay with MDA-MB-231 it was 38.2 µM (inactive). The GI50 in the assay on SNB-19 was 40.1 µM (inactive); with LOX IMVI, > 100 µM (inactive); in the assay on Malme-3M, > 100 µM (inactive); with COLO 205, > 100 µM (inactive); in the assay with MOLT-4, > 100 µM (inactive); in the assay on A549, > 100 µM (inactive). Besides, the GI50 in the assay on SNB-75 was 17.8 µM (inactive); in the assay on SF-539, 37 µM (inactive); with A498 it was 23.7 µM (inactive); in the assay with MCF7, 77.8 µM (inactive); in the assay on SK-OV-3, 94.6 µM (inactive).

Turning to `COc1ccc(-c2c(-c3ccccc3)c(C)nc3[nH]c(=S)[nH]c(=S)c23)cc1OC`, the GI50 with NCI/ADR-RES is 40.4 µM (inactive); in the assay on ACHN it was 30.3 µM (inactive); in the assay on U-251, 33.4 µM (inactive); in the assay on NCI-H226 it was 38 µM (inactive); in the assay with HOP-62, 33.1 µM (inactive); with MDA-MB-231 it was 26.9 µM (inactive). For the same compound, the GI50 in the assay on SNB-19 was 60.3 µM (inactive); with LOX IMVI it was 28.2 µM (inactive); in the assay on Malme-3M, 30.8 µM (inactive); in the assay on COLO 205, 25.3 µM (inactive); in the assay on MOLT-4 it was 12 µM (inactive); with A549, 30.3 µM (inactive). The GI50 is 42 µM (inactive) in the assay on SNB-75; 19.8 µM (inactive) in the assay with SF-539; 28.2 µM (inactive) in the assay with A498; 33.8 µM (inactive) in the assay with MCF7; 37 µM (inactive) in the assay on SK-OV-3.

Consider `CSc1nc(NCc2ccccc2)c2cnn(COCCO)c2n1`, for which the GI50 is 53 µM (inactive) with NCI/ADR-RES; 31.9 µM (inactive) in the assay on ACHN; 44.5 µM (inactive) with U-251; 55.5 µM (inactive) with NCI-H226; > 100 µM (inactive) in the assay on HOP-62; 55.6 µM (inactive) with MDA-MB-231. Further, the GI50 was 38.6 µM (inactive) in the assay on LOX IMVI; 42.9 µM (inactive) in the assay on Malme-3M; 29.9 µM (inactive) in the assay with COLO 205; 26.3 µM (inactive) in the assay on MOLT-4; 69.7 µM (inactive) in the assay on SR; 43.9 µM (inactive) with A549. Also, the GI50 was 0.152 µM (active) with SNB-75, > 100 µM (inactive) with SF-539, 45.3 µM (inactive) in the assay with MCF7 and > 100 µM (inactive) in the assay with SK-OV-3.

In the case of `N=C1/C(=C/c2ccc(F)cc2)C(=O)N=C2SC=NN12`, the GI50 in the assay on NCI/ADR-RES, in the assay on ACHN, in the assay on U-251, with NCI-H226, in the assay on HOP-62 and in the assay with MDA-MB-231 was > 100 µM (inactive) in each case. Further, the GI50 in the assay with SNB-19 was > 100 µM (inactive); in the assay on LOX IMVI it was 12.9 µM (inactive); in the assay on Malme-3M, > 100 µM (inactive); in the assay with COLO 205, > 100 µM (inactive); in the assay on MOLT-4 it was > 100 µM (inactive); with SR it was 92.3 µM (inactive). Besides, the GI50 is > 100 µM (inactive) with A549; 92.3 µM (inactive) in the assay with SNB-75; > 100 µM (inactive) in the assay on SF-539; > 100 µM (inactive) with MCF7; > 100 µM (inactive) in the assay with SK-OV-3.

`Cc1ccc(P(c2ccc(C)cc2)c2ccc(C)cc2)cc1`: the GI50 in the assay with NCI/ADR-RES was 27.5 µM (inactive); with ACHN, 23.2 µM (inactive); with U-251, 14.3 µM (inactive); in the assay on MDA-MB-231, 25.9 µM (inactive); in the assay with SNB-19, 61.8 µM (inactive); in the assay with LOX IMVI, 14.9 µM (inactive). The GI50 with Malme-3M was 18.3 µM (inactive); in the assay on COLO 205, 14.5 µM (inactive); in the assay on MOLT-4 it was 16.5 µM (inactive); in the assay on A549, 14.6 µM (inactive); in the assay with SNB-75, 15.2 µM (inactive); in the assay with SF-539, 21.6 µM (inactive). Further, the GI50 in the assay with A498 was 27.1 µM (inactive); in the assay with MCF7, 31.3 µM (inactive); in the assay with SK-OV-3 it was 30.4 µM (inactive).

As for `CN(NC(=O)/C(=C/c1ccc(Cl)cc1)NC(=O)c1ccccc1)c1cn[nH]c(=O)c1Cl`, the GI50 is 34 µM (inactive) with NCI/ADR-RES; > 100 µM (inactive) with ACHN; 40.9 µM (inactive) with U-251; 31.1 µM (inactive) with NCI-H226; 47 µM (inactive) with HOP-62; > 100 µM (inactive) with MDA-MB-231. Also, the GI50 in the assay on SNB-19 was > 100 µM (inactive); with LOX IMVI, 62.7 µM (inactive); with Malme-3M, 54.5 µM (inactive); in the assay with COLO 205, > 100 µM (inactive); in the assay with MOLT-4 it was 19.9 µM (inactive); in the assay with SR it was > 100 µM (inactive). For the same compound, the GI50 in the assay with A549 was > 100 µM (inactive); with SNB-75 it was 59 µM (inactive); in the assay with SF-539, > 100 µM (inactive); in the assay on MCF7, > 100 µM (inactive); with SK-OV-3 it was > 100 µM (inactive).
